Laboratory results reported in a melting point compilation (Tetko et al.).

## CCP(=S)(CC)CC
  melting point: 95 °C

## CC(=O)c1csc([N+](=O)[O-])c1
  melting point: 59 to 61 °C

## O=C1OC(=O)C2CC12 (configuration not stated)
  melting point: 54 to 60 °C

## Cn1ccccc1=O
  melting point: 31 °C

## CN(C)C(=O)Nc1ccc(-n2nc(C(C)(C)C)oc2=O)c(Cl)c1
  melting point: 193 °C

## O=C1CCC2OCC(c3ccccc3)N12 (configuration not stated)
  melting point: 76 to 80 °C

## CC(=O)CC(=O)OCc1ccc([N+](=O)[O-])cc1
  melting point: 45 to 46.5 °C

## OCc1ccc2ncccc2c1
  melting point: 79 to 80 °C

## Nc1cccc(Cc2cccc(N)c2)c1
  melting point: 81.5 °C

## Fc1cc(CCl)c2c(c1)COCO2
  melting point: 78 to 80 °C

## O=C(CNc1ccc(NCC(=O)c2ccccc2)cc1)c1ccccc1
  melting point: 151 °C

## CO[Si](OC)(OC)OC
  melting point: 4.5 °C

## O=[N+]([O-])c1ccc(S(=O)(=O)Cl)cc1
  melting point: 78 °C

## NC(=S)C1=Cc2ccccc2OC1
  melting point: 172 to 174 °C

## Cc1cncc(Oc2ccc(Br)cc2)n1
  melting point: 58.5 to 60 °C

## CC(C)(C)C(C)(C)O
  melting point: 17 °C

## OCCOc1ccccc1OCCO
  melting point: 78 to 82 °C

## Nc1nn2c(C(F)(F)F)cc(=O)[nH]c2c1/N=N/c1ccc(O)cc1
  melting point: 268 °C

## c1cnc2c(c1)ccc1ncccc12
  melting point: 79 °C

## CC(=O)Nc1ccc(S(=O)(=O)Nc2ccc([N+](=O)[O-])cc2)cc1
  melting point: 240 °C

## CC(=O)C1=CCC2(C)C(CCC3C4CCC(=O)C4(C)CCC32)C1 (configuration not stated)
  melting point: 152 to 153 °C

## CC(C)CNC(=O)C(C(F)(F)F)C(F)(F)F
  melting point: 111 °C

## COC(=O)C(OC)C(=O)OC
  melting point: 11 to 12 °C

## CCCCCCCCCCCCCCCCCCNC
  melting point: 44 °C

## Nc1ccc(N=Nc2ccc(N=Nc3ccc(N)cc3)cc2)cc1
  melting point: 247 °C

## Cn1c(=O)c(C2=NNC(=O)C2=NNc2ccc([N+](=O)[O-])cc2)c(O)c2ccccc21
  melting point: 300 °C

## O=c1cc(-c2ccccc2)oc2ccc3ccccc3c12
  melting point: 164 °C

## NC(=S)C(N)=S
  melting point: 170 °C

## Clc1ccc(Cl)c(-c2cc(Cl)c(Cl)c(Cl)c2)c1
  melting point: 105 °C

## CC(C)(C)c1ccc2ccccc2c1
  melting point: -4 °C

## FC(F)(F)c1cccc(CSc2nnc(S)s2)c1
  melting point: 140 to 142 °C

## O=[N+]([O-])c1ccc(S(=O)(=O)Cl)cc1Cl
  melting point: 38 °C

## c1ccc(-c2cccc(-c3ccccc3)n2)cc1
  melting point: 78 °C

## O=C(O)/C(=C/c1ccc([N+](=O)[O-])cc1)c1ccccc1C(=O)O
  melting point: 223 °C

## NC(CS(=O)(=O)c1ccccc1)=NO
  melting point: 162 °C

## O=C=Nc1cccc(COc2ccccc2)c1
  melting point: 51 to 53 °C

## O=C1OC(c2ccccc2)=NC1=Cc1cccs1
  melting point: 167 °C

## O=[N+]([O-])c1cc(C(F)(F)F)c(Cl)cc1Cl
  melting point: 55 °C

## Cc1nc(-c2ccc(Br)s2)cs1
  melting point: 78 to 79 °C

## O=C1OC(c2ccccc2)=NC1=Cc1ccc(-c2ccc([N+](=O)[O-])cc2)o1
  melting point: 208 °C

## NC(=S)c1ccc(C2OCCO2)cc1
  melting point: 150 to 154 °C

## Cc1cccc(Br)c1C(=O)O
  melting point: 109 °C

## COC(=O)Nc1cccc(OC(=O)Nc2cccc(C)c2)c1
  melting point: 143 °C

## O=C(Nc1ccccc1Br)C(C(F)(F)F)C(F)(F)F
  melting point: 183 to 185 °C

## O=C(O)C=CCCl
  melting point: 83 °C

## N#Cc1c(Cl)ccc([N+](=O)[O-])c1Cl
  melting point: 108 °C

## CCOC(=O)C1=C(C)NC(=O)NC1c1cccc(OC)c1O (configuration not stated)
  melting point: 209 °C

## CC(C)OC(=O)COc1ccc(Cl)cc1Cl
  melting point: 5 °C

## Cc1cc(C(=O)O)oc1C
  melting point: 146 to 148 °C

## CCOC(=O)c1c(C)oc(NC(=O)Nc2ccc(Cl)cc2)c1C(=O)OCC
  melting point: 169 to 170 °C

## CC(=O)c1ccc(F)c(Br)c1
  melting point: 56 °C

## CC1CCC(C(C)C)C(OCC(=O)O)C1 (configuration not stated)
  melting point: 54 °C

## O=Cc1cc(I)ccc1F
  melting point: 44 °C

## OC(c1ccccc1)c1ccc(Br)cc1 (configuration not stated)
  melting point: 61 to 63 °C

## CSc1ccc(O)cc1C
  melting point: 56 °C

## CC(=O)C1CC(CC(=O)O)C1(C)C (configuration not stated)
  melting point: 104 to 107 °C

## Cc1ccc2c(c1Cc1ccccc1)CCC1C2CCC2CCCCC21C (configuration not stated)
  melting point: 95 °C

## COC(=O)c1sccc1-n1cccc1
  melting point: 61 °C

## C=CCOc1ccc(CC(=O)O)cc1Cl
  melting point: 92 °C

## CCSc1nnc(NC(=O)C(F)(F)C(F)(F)C(F)(F)C(F)(F)C(F)(F)C(F)(F)C(F)(F)C(F)(F)F)s1
  melting point: 131 °C

## Cc1ccc(S(=O)(=O)NC(=S)Nc2ccccc2)cc1
  melting point: 148 to 149 °C

## Cc1ccc(C#N)c(F)c1
  melting point: 53 °C

## O=C(c1cccc(F)c1)c1cccc(F)c1
  melting point: 59 °C

## Cc1ccc([N+](=O)[O-])cc1S(=O)(=O)O
  melting point: 133 °C

## O=[N+]([O-])c1ccc(-c2ccc(-c3ccc([N+](=O)[O-])cc3)cc2)cc1
  melting point: 278 °C

## Oc1ccc(O)c2c1C1CCC2C1
  melting point: 172 to 178 °C

## S=C=Nc1c(Cl)cc(Cl)cc1Cl
  melting point: 74 to 76 °C

## CSCCC(NS(=O)(=O)c1ccc(C)cc1)C(=O)O (racemic)
  melting point: 105 to 108 °C

## c1ccc2c(c1)Oc1nc3ccccc3nc1O2
  melting point: 256 °C

## Brc1cnc2ccccn12
  melting point: 93 °C

## CCOC(=O)/C=C/[C@@H]1[C@@H](c2ccccc2)N1C(=O)c1ccccc1
  melting point: 118 °C

## Cc1cc(C)c(C=O)c(C)c1
  melting point: 14 °C

## COC(=O)c1noc(C)c1C(C)=NO
  melting point: 121 to 124 °C

## CC1CC(OC(=O)C(O)c2ccccc2)CC(C)(C)C1 (configuration not stated)
  melting point: 56 °C

## Cc1nn(Cc2cccc(C(=O)O)c2)c(C)c1Br
  melting point: 224 to 226 °C

## CC(C)=NOCCOC(=O)C(C)Oc1ccc(Oc2cnc3cc(Cl)ccc3n2)cc1 (configuration not stated)
  melting point: 66.3 °C

## O=C(Cl)N1c2ccccc2Sc2ccccc21
  melting point: 168 to 172 °C

## O=[N+]([O-])C=Cc1c(Cl)cccc1Cl
  melting point: 62 to 66 °C

## C=Cc1cccc(CC)c1
  melting point: -101 °C

## CC(=O)Oc1ccccc1/C=C/c1ccccc1
  melting point: 56 °C

## CC(Cl)(Cl)C(=O)O
  melting point: -5 °C

## CC(=O)OCC1OC(S)C(OC(C)=O)C(OC(C)=O)C1OC(C)=O (configuration not stated)
  melting point: 114 to 119 °C

## CC(=O)N(Nc1ccc(-c2ccc([N+](=O)[O-])cc2)cc1)c1ccccc1
  melting point: 161 °C

## O=S(=O)(O)NC1CCCCC1
  melting point: 170 °C

## CSc1nc(N)c(C(=O)c2ccc(Br)cc2)s1
  melting point: 163 to 165 °C

## NC(=O)Nc1ccccc1
  melting point: 147 °C

## COc1cc(CCNC(=O)CC(C)C)ccc1OCc1ccccc1
  melting point: 114 °C

## CCC(=O)C(CC(C)N1CCOCC1)(c1ccccc1)c1ccccc1 (configuration not stated)
  melting point: 75 °C

## CCNC(C)Cc1cccc(C(F)(F)F)c1 (configuration not stated)
  melting point: 110 °C

## N#Cc1ccc(N)c(OC(F)(F)F)c1
  melting point: 72 °C

## FC(F)(F)CBr
  melting point: -93.9 °C

## O=Cc1ncccc1F
  melting point: 49 to 52 °C

## Nc1cccc(-c2ccsc2)c1
  melting point: 89 °C

## NS(=O)(=O)c1cccc(Cl)c1
  melting point: 146 °C

## CC(C)(C)OC(=O)N1CCC(N)CC1
  melting point: 46 °C

## CCCCCC(=NO)C(C)=O
  melting point: 59 °C

## NNC(=O)c1ccc(Cl)cc1
  melting point: 164 °C

## CCCCCCCCCCCC(=O)Cl
  melting point: -17 °C

## CC(=O)n1c(C)cc2cc3cc(C)[nH]c3cc21
  melting point: 279 °C

## OCc1cc2cc(Br)ccc2o1
  melting point: 101 to 103 °C

## CSCCC(N)C(=O)O (configuration not stated)
  melting point: 281 °C

## COC(=O)c1ccc(N=C=S)cc1
  melting point: 48 °C

## O=C(O)c1ccc(C(F)(F)F)cc1C(=O)O
  melting point: 151 °C

## Nc1ccc(Cl)c(Cl)c1
  melting point: 72 °C

## CCCCCCCCC=CCCCCCCCC(=O)OC(=O)CCCCCCCC=CCCCCCCCC
  melting point: 22 to 23 °C

## O=C(O)c1ccc(F)cc1Br
  melting point: 169 to 173 °C

## O=[N+]([O-])c1cc(Cl)ccc1Sc1ccccc1
  melting point: 82 to 84 °C

## O=[N+]([O-])c1coc2ccc(O)cc12
  melting point: 164 to 165 °C

## CC(C)(C)OC(=O)N1CCC(C#N)CC1
  melting point: 47 °C

## CCCCC(CC)CCl (configuration not stated)
  melting point: -70 °C

## O=Cc1ccc(-c2ncccn2)cc1
  melting point: 108 to 109 °C

## Clc1cc(N2CCCCC2)ncn1
  melting point: 79 °C

## CCCOc1ccc2c(c1)C(c1ccc(OC)cc1OCC(=O)O)C(C(=O)O)C2c1ccc2c(c1)OCO2 (configuration not stated)
  melting point: 254 °C

## CC(=O)Nc1c(Cl)cccc1Cl
  melting point: 181 °C

## O=C(c1ccc2ccccc2c1)c1noc(-c2ccc([N+](=O)[O-])cc2)c1S(=O)(=O)c1ccccc1
  melting point: 131 °C

## N#Cc1c(F)cccc1Oc1ccccc1
  melting point: 92 to 96 °C

## Cc1cc(Cl)cc2c(O)c(C(=O)O)cnc12
  melting point: 303 to 308 °C

## Cc1c(C(=O)O)sc2c1CCCC2
  melting point: 218 °C

## C=CCSc1ncccc1C(=O)O
  melting point: 147 to 149 °C

## COc1ccc(-c2onc(C(=O)c3ccc(Br)cc3)c2S(=O)(=O)c2ccccc2)cc1
  melting point: 140 °C

## OCc1ccc(N2CCCC2)nc1
  melting point: 61 to 62 °C

## Cn1nc(C(F)(F)F)c(C=O)c1Cl
  melting point: 41 to 42 °C

## CC(=O)Nc1ccc(OCC(O)CNC(C)C)cc1 (configuration not stated)
  melting point: 135 °C

## Cc1c(C)c(C#N)c2ccccc2c1C#N
  melting point: 261 to 264 °C

## CN1CCC(=C2c3ccccc3CC(=O)c3sccc32)CC1
  melting point: 152 °C

## Ic1nccn1C(c1ccccc1)(c1ccccc1)c1ccccc1
  melting point: 171 °C

## Clc1cc(Cl)c2oc3c(Cl)c(Cl)ccc3c2c1
  melting point: 164 °C

## NC(CO)CO
  melting point: 54 °C

## O=[N+]([O-])c1ccc(N2CCCCC2)cc1
  melting point: 104 to 106 °C

## CCCCCCCCNC
  melting point: -11 °C

## COC(=O)c1ccc(N2CCCC2)nc1
  melting point: 119 to 121 °C

## CCc1cc(C)cc(O)c1
  melting point: 51.6 °C
